#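 Test compounds were applied to cells in 96-well plates for 48 hours at 5 doses. At the GI50, growth is halved.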 Calls of active or inactive are those of the source. Rule as the data show it: active = GI50 up to about 1.1 µM and inactive = higher.
# Tests used:
# Assay in all cases: NCI-60 cell line screen, 48 h
# SF-539 = system: SF-539
# HCT-116 = system: HCT-116
# OVCAR-4 = system: OVCAR-4
# NCI-H226 = system: NCI-H226
# MOLT-4 = system: MOLT-4
# MCF7 = system: MCF7
# OVCAR-8 = system: OVCAR-8
# UACC-257 = system: UACC-257
# EKVX = system: EKVX
# SR = system: SR
# CCRF-CEM = system: CCRF-CEM
# HL-60 = system: HL-60
# KM12 = system: KM12
# HCT-15 = system: HCT-15
# PC-3 = system: PC-3
# OVCAR-5 = system: OVCAR-5
# SN12C = system: SN12C
# COLO 205 = system: COLO 205
# BT-549 = system: BT-549
SMILES,GI50 (SF-539),GI50 (HCT-116),GI50 (OVCAR-4),GI50 (NCI-H226),GI50 (MOLT-4),GI50 (MCF7),GI50 (OVCAR-8),GI50 (UACC-257),GI50 (EKVX),GI50 (SR),GI50 (CCRF-CEM),GI50 (HL-60),GI50 (KM12),GI50 (HCT-15) [µM],GI50 (PC-3),GI50 (OVCAR-5),GI50 (SN12C),GI50 (COLO 205),GI50 (BT-549)
Cc1c(C#N)c(N)n(C2OC(CO)C(O)C(O)C2O)c(=S)c1C#N (configuration not stated),> 100 µM (inactive),> 100 µM (inactive),> 100 µM (inactive),> 100 µM (inactive),> 100 µM (inactive),> 100 µM (inactive),> 100 µM (inactive),> 100 µM (inactive),> 100 µM (inactive),> 100 µM (inactive),> 100 µM (inactive),> 100 µM (inactive),> 100 µM (inactive),> 100,> 100 µM (inactive),> 100 µM (inactive),> 100 µM (inactive),–,–
Cc1ccc(-c2cc(-c3ccco3)c(C#N)c(O)n2)cc1,> 100 µM (inactive),> 100 µM (inactive),45.1 µM (inactive),> 100 µM (inactive),> 100 µM (inactive),–,> 100 µM (inactive),> 100 µM (inactive),> 100 µM (inactive),–,> 100 µM (inactive),> 100 µM (inactive),> 100 µM (inactive),> 100,–,> 100 µM (inactive),> 100 µM (inactive),> 100 µM (inactive),–
O=C1CC(c2cccc(Cl)c2)n2cccc21 (configuration not stated),> 100 µM (inactive),> 100 µM (inactive),> 100 µM (inactive),> 100 µM (inactive),70 µM (inactive),> 100 µM (inactive),> 100 µM (inactive),> 100 µM (inactive),–,90.2 µM (inactive),> 100 µM (inactive),32.8 µM (inactive),77.3 µM (inactive),> 100,49.5 µM (inactive),> 100 µM (inactive),> 100 µM (inactive),> 100 µM (inactive),–
CCc1ccc2c(c1)CC1(C2)Cc2cc3c(cc2C1)C(=O)CC3 (configuration not stated),18 µM (inactive),12.1 µM (inactive),15 µM (inactive),19.7 µM (inactive),–,5.08 µM (inactive),21.9 µM (inactive),8.39 µM (inactive),> 100 µM (inactive),–,2.94 µM (inactive),2.69 µM (inactive),10.5 µM (inactive),23.9,16.3 µM (inactive),27.5 µM (inactive),27 µM (inactive),4.93 µM (inactive),–
COC1(OC)CCCc2c1no[n+]2[O-],> 100 µM (inactive),> 100 µM (inactive),> 100 µM (inactive),> 100 µM (inactive),> 100 µM (inactive),> 100 µM (inactive),> 100 µM (inactive),> 100 µM (inactive),> 100 µM (inactive),> 100 µM (inactive),> 100 µM (inactive),> 100 µM (inactive),> 100 µM (inactive),> 100,> 100 µM (inactive),> 100 µM (inactive),> 100 µM (inactive),> 100 µM (inactive),–
CN1CC[C@@]2(c3cccc(O)c3)CC(=O)/C(=C/c3ccc(Cl)c(Cl)c3)[C@H]1C2,–,–,4.59 µM (inactive),–,3.15 µM (inactive),–,3.05 µM (inactive),3.41 µM (inactive),8.79 µM (inactive),1.14 µM (inactive),2.26 µM (inactive),1.52 µM (inactive),–,1.98,1.57 µM (inactive),4.35 µM (inactive),2.04 µM (inactive),–,2.52 µM (inactive)
CCCCCC(C/C=N/N(C)C)C(O)(C(F)(F)F)C(F)(F)F (configuration not stated),35.2 µM (inactive),32 µM (inactive),53.2 µM (inactive),41.5 µM (inactive),29.4 µM (inactive),–,41.5 µM (inactive),–,41.6 µM (inactive),34.8 µM (inactive),17.1 µM (inactive),14.2 µM (inactive),36.3 µM (inactive),49.8,20.8 µM (inactive),65.6 µM (inactive),28.2 µM (inactive),16.3 µM (inactive),–
Cc1ccc(/N=N/NCCCCN)cc1,> 100 µM (inactive),> 100 µM (inactive),> 100 µM (inactive),> 100 µM (inactive),7.26 µM (inactive),> 100 µM (inactive),> 100 µM (inactive),> 100 µM (inactive),> 100 µM (inactive),> 100 µM (inactive),9.64 µM (inactive),3.79 µM (inactive),81.7 µM (inactive),> 100,–,> 100 µM (inactive),> 100 µM (inactive),> 100 µM (inactive),> 100 µM (inactive)
O=c1c2sc3nc(NCCN4CCCCC4)ncc3c2ncn1-c1ccccc1,–,33.1 µM (inactive),> 100 µM (inactive),93.8 µM (inactive),67.8 µM (inactive),–,45.5 µM (inactive),31.3 µM (inactive),–,> 100 µM (inactive),44.7 µM (inactive),–,> 100 µM (inactive),40.4,59.3 µM (inactive),> 100 µM (inactive),> 100 µM (inactive),41.3 µM (inactive),85.9 µM (inactive)
Cc1[nH]n(-c2ncc(C#N)c(=O)[nH]2)c(=O)c1CCO,> 100 µM (inactive),> 100 µM (inactive),> 100 µM (inactive),> 100 µM (inactive),75.5 µM (inactive),> 100 µM (inactive),> 100 µM (inactive),> 100 µM (inactive),> 100 µM (inactive),> 100 µM (inactive),> 100 µM (inactive),–,> 100 µM (inactive),> 100,> 100 µM (inactive),> 100 µM (inactive),> 100 µM (inactive),> 100 µM (inactive),–
COc1cc2c(c(OC)c1O)-c1ccc(SC)c(=O)cc1C(NC(C)=O)CC2 (configuration not stated),< 0.01 µM (active),< 0.01 µM (active),> 40.6 µM (inactive),0.532 µM (active),< 0.0122 µM (active),–,0.0307 µM (active),2.24 µM (inactive),39.7 µM (inactive),0.0112 µM (active),< 0.01 µM (active),< 0.01 µM (active),< 0.01 µM (active),1.06,–,4.83 µM (inactive),0.0518 µM (active),< 0.01 µM (active),–
CCOC(=O)CCc1c(C(=O)OCC)[nH]c(/C=C2\NC(=O)C(C)=C2CC)c1C,27.9 µM (inactive),33.7 µM (inactive),20.4 µM (inactive),36.5 µM (inactive),> 100 µM (inactive),41 µM (inactive),5.83 µM (inactive),–,22.2 µM (inactive),–,> 100 µM (inactive),> 100 µM (inactive),> 100 µM (inactive),26.1,26.4 µM (inactive),25.6 µM (inactive),32.6 µM (inactive),> 100 µM (inactive),–
N#Cc1nc(NC(=O)c2ccccc2)sc1N,> 10 µM (inactive),> 10 µM (inactive),> 6.07 µM (inactive),> 10 µM (inactive),3.27 µM (inactive),> 2.22 µM (inactive),> 10 µM (inactive),> 10 µM (inactive),> 10 µM (inactive),> 6.01 µM (inactive),4.54 µM (inactive),3 µM (inactive),> 10 µM (inactive),> 10,> 10 µM (inactive),> 10 µM (inactive),> 10 µM (inactive),> 10 µM (inactive),–
O=c1[nH]c2ccccc2c2nc3ccccc3n12,24.4 µM (inactive),19.1 µM (inactive),2 µM (inactive),–,36.9 µM (inactive),21.8 µM (inactive),> 100 µM (inactive),38.1 µM (inactive),3.89 µM (inactive),–,> 100 µM (inactive),> 100 µM (inactive),22.4 µM (inactive),> 100,> 100 µM (inactive),> 100 µM (inactive),> 100 µM (inactive),29.2 µM (inactive),83 µM (inactive)
COC(=O)/C=C/c1cc(O)c2c(c1)[C@H](C(=O)OC)[C@@H](c1ccc(O)c(O)c1)O2,0.0311 µM (active),0.0499 µM (active),2.76 µM (inactive),2.48 µM (inactive),0.0753 µM (active),0.108 µM (active),0.169 µM (active),17.4 µM (inactive),8.67 µM (inactive),0.0316 µM (active),0.0381 µM (active),–,0.283 µM (active),0.0451,1.57 µM (inactive),35.7 µM (inactive),0.18 µM (active),11.5 µM (inactive),–
CN1C(=O)N(C)C2(O)c3ccccc3C(=O)C12O (configuration not stated),> 100 µM (inactive),> 100 µM (inactive),> 100 µM (inactive),> 100 µM (inactive),> 100 µM (inactive),–,> 100 µM (inactive),> 100 µM (inactive),> 100 µM (inactive),> 100 µM (inactive),> 100 µM (inactive),–,> 100 µM (inactive),> 100,–,> 100 µM (inactive),> 100 µM (inactive),> 100 µM (inactive),–
c1ccc(CC2(c3cc4ccccc4[nH]3)OCCO2)nc1,> 100 µM (inactive),> 100 µM (inactive),–,18 µM (inactive),61.1 µM (inactive),–,> 100 µM (inactive),> 100 µM (inactive),92.3 µM (inactive),–,83 µM (inactive),72.3 µM (inactive),> 100 µM (inactive),> 100,> 100 µM (inactive),> 100 µM (inactive),> 100 µM (inactive),> 100 µM (inactive),> 100 µM (inactive)

# Source: ChEMBL document CHEMBL1201862, “PubChem BioAssay data set” (2004)
